Experimental data from publication PMC6235670, “An mTOR Signaling Modulator Suppressed Heterotopic Ossification of Fibrodysplasia Ossificans Progressiva” (Stem Cell Reports, 2018).

What was measured:
BMP signaling (BRE-Luc) = assay: BRE-Luc reporter assay in FOP-iMSCs; format: cell-based, human; details: activin A and compounds for 16 hr
Protocol: (§1) FOP-iMSCs transiently transfected with BRE-Luc (A) or CAGA-Luc (B) with CMV-Renilla were stimulated with activin A and compounds for 16 hr (A) or 3 hr (B). […] One day after siRNA transfection, chondrogenic induction with activin A was initiated, and after 7 days the cells were harvested. […] FOP-iMSCs cultured with 10% FBS were treated with 100 nM rapamycin (Rapa) or TAK 165 (TAK) for 2 hr, and the cells were harvested. […] 1 μM TAK, 1 μM CP (CP-724714, another selective ERBB2 inhibitor), or 10 nM Rapa were applied in the experiments.

[1] = tested on: TGF-β signaling (CAGA-Luc); assay: CAGA-Luc reporter assay in FOP-iMSCs; format: cell-based, human; details: activin A and compounds for 3 hr
Protocol: as §1

C57BL/6 mice = assay: Growth plate histology and normal bone µCT in compound-administered BMP-7-injected mice; details: 5 mg/kg i.p., 2 weeks
Protocol: MTOR s604 […]tt […]at […]
System Engineering) according to the manufacturer's instructions. […]
BMP-7-induced HO model mice. BMP -7 (2 µ g/mouse) was injected into the right gastrocnemius muscle of C57BL/6NJcl mice (6-8 weeks, male, CLEA Japan), and compounds were administered once a day, five times a week (intraperitoneal administration). Mice were analyzed 2 weeks after injection. […]
Histological analysis of growth plates chondrocytes. Knee joints were obtained from BMP-7-injected and test compounds-administrated C57BL/6NJcl mice after 2 weeks treatment and fixed, paraffin-embedded, and sectioned and stained with Safranin O. The thickness of the proliferative and hypertrophic zones of the growth plate were measured using ImageJ software on images obtained using a Keyence microscope (Keyence A merica). The proliferative zone was defined as the region with flat chondrocytes stacked in longitudinal columns, and the hypertrophic zone as the region where chondrocytes are enlarged in size and form clusters.
Normal bone µCT. The left legs of mice were obtained from BMP -7-injected and test -compounds administrated C57BL/6NJcl mice after 2 weeks treatment. The region of interest (ROI) included the femur- tibia (entire femur in addition to the part of tibia above tibia/fibular junction). […]
Tests of side effects of direct and indirect mTOR inhibitors. Related

FC(F)(F)c1ccc(/C=C/c2nc(COc3ccc(CCCCn4ccnn4)cc3)co2)cc1 [TAK 165, mubritinib]
BRE-Luc (BMP-specific luciferase reporter) (BMP signaling (BRE-Luc)): did not affect
CAGA-Luc (TGF-β-responsive luciferase reporter) [1]: did not affect
Bone Mineral Density (normal bone µCT) vs vehicle (C57BL/6 mice): n.s.
Bone volume (normal bone µCT, femur-tibia) vs vehicle (C57BL/6 mice): n.s.
Hypertrophic zone thickness of growth plate vs vehicle (C57BL/6 mice): n.s.
Proliferative zone thickness of growth plate vs vehicle (C57BL/6 mice): n.s.
chondrogenesis of normal chondrocytes (growth plate) (C57BL/6 mice): did not impair
normal skeletal development in vivo (C57BL/6 mice): did not impair
